From patent US20230113262A1, “Peptide for cancer immunotherapy rupturing tumor-derived vesicle and use thereof” (RESEARCH & BUSINESS FOUNDATION SUNGKYUNKWAN UNIVERSITY, priority 2021, published 2023) come the findings set out here.

In data set [1] the test system is fibroblast cell line NIH3T3. Description: Cytotoxicity assay (MTT) in NIH3T3. Conditions: NIH3T3 cells. It counts as cell-based, mouse. On the procedure: (§1) First, 10^4 cells of each cell line were seeded in a 96-well plate, and cultured for 24 hours. After culturing for 4 hours in a serum-free culture medium, the peptides at each concentration were injected into the wells and further incubated for 4 hours. After discarding a supernatant, 0.5 mg/ml of MTT-containing medium was treated and then left for 2 hours, formazan crystals in the cells were dissolved in each well using dimethyl sulfoxide. Then, cytotoxicity was analyzed by measuring absorbance at 570 nm using a microplate reader.

The subject of data set [2] is melanoma cell line B16F10. Briefly: Cytotoxicity assay (MTT) in B16F10. It counts as cell-based, mouse. Conditions: B16F10 cells. On the procedure: as §1
For data set [3], the target named is T1, PD-L1 on tumor-derived exosomes (T-EXO) isolated from the plasma of B16F10 melanoma tumor-bearing mice (mouse, UniProt Q9EP73 19-290).
T1 construct: whole, on cells; also called PD-L1^EXO; exosomal PD-L1
T1 sequence (Q9EP73 19-290, one chain of several): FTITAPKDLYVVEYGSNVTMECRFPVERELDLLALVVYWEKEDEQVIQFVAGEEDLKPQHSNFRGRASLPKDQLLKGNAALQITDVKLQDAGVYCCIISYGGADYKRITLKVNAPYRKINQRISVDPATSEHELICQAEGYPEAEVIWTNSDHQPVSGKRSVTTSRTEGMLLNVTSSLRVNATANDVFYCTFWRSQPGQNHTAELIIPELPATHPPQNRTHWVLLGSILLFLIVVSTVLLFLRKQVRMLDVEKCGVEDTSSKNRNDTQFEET
Description: ELISA: T-EXO captured on PD-L1 antibody-coated plate, biotin-labeled murine PD-1 (4 ug/ml) detected with streptavidin-HRP, OD 450 nm.
Description: After treating the plate for 2 hours, the plate was washed with PBS-T (PBS containing 0.05% Tween-20). […] Wells were washed with PBS-T three times, and treated with horseradish peroxidase-conjugated streptavidin (100 μl per well; R&D Systems) diluted in 0.5% BSA-containing PBS for 30 minutes. After washing with PBS-T, the plate was treated with tetramethylbenzidine (R&D Systems) and the reaction was stopped by adding 0.5 N H₂SO₄.

In the case of `CC[C@@H](C)[C@@H](NC(=O)[C@@H](Cc1c[nH]c2ccccc12)NC(=O)[C@@H](CC(=O)O)NC(=O)[C@@H](Cc1c[nH]c2ccccc12)NC(=O)[C@H](NC(=O)[C@@H](CC(=O)O)NC(=O)[C@@H](CCCNC(=N)N)NC(=O)[C@@H](CC(C)C)NC(=O)[C@@H](Cc1c[nH]c2ccccc12)NC(=O)[C@@H](CO)NC(=O)CNC(=O)[C@H](N)CO)C(C)C)C(=O)N[C@H](CS)C(=O)N[C@@H](C(=O)N[C@@H](C(=O)N[C@H](CC(C)C)C(=O)N[C@@H](C(=O)N[C@H](CC(=O)O)C(=O)N[C@H](Cc1ccccc1)C(=O)N[C@H](CCCCN)C(=O)N[C@@H](C(=O)N[C@H](Cc1c[nH]c2ccccc12)C(=O)N[C@H](CC(C)C)C(=O)N[C@H](CCC(N)=O)C(=O)N[C@H](CO)C(=O)N[C@H](CCCCN)C(=O)N[C@H](CC(C)C)C(N)=O)[C@H](C)O)[C@H](C)O)C(C)C)[C@H](C)O` [AH-D peptide], the cytotoxicity result was “neither the AH-D peptide nor the NH-D peptide has cytotoxicity” in data set [1], “did not exhibit cytotoxicity” in data set [1] (listed as AH peptide), “neither the AH-D peptide nor the NH-D peptide has cytotoxicity” in data set [2] and “did not exhibit cytotoxicity” in data set [2] (listed as AH peptide).

For `CC(C)C[C@@H](NC(=O)[C@@H](CCCCN)NC(=O)[C@@H](CO)NC(=O)[C@@H](CCC(N)=O)NC(=O)[C@@H](CC(C)C)NC(=O)[C@@H](Cc1c[nH]c2ccccc12)NC(=O)[C@H](NC(=O)[C@@H](CCCCN)NC(=O)[C@@H](CC(=O)O)NC(=O)[C@@H](CC(=O)O)NC(=O)[C@H](NC(=O)[C@@H](CC(C)C)NC(=O)[C@H](NC(=O)[C@H](NC(=O)[C@@H](CS)NC(=O)[C@@H](CCC(=O)O)NC(=O)[C@@H](Cc1c[nH]c2ccccc12)NC(=O)[C@@H](CC(=O)O)NC(=O)[C@@H](Cc1c[nH]c2ccccc12)NC(=O)[C@@H](CC(=O)O)NC(=O)[C@@H](CC(=O)O)NC(=O)[C@@H](CCCNC(=N)N)NC(=O)[C@@H](CC(C)C)NC(=O)[C@@H](Cc1c[nH]c2ccccc12)NC(=O)[C@@H](CO)NC(=O)CNC(=O)[C@H](N)CO)[C@H](C)O)C(C)C)[C@H](C)O)[C@H](C)O)C(N)=O` [NH-D peptide, reference compound], the cytotoxicity entry in data set [1] and in data set [2] was “neither the AH-D peptide nor the NH-D peptide has cytotoxicity” each time.

B1: biotin-labeled murine PD-1 protein (cat no. 71118, BPS Bioscience) (receptor, UniProt Q02242 25-167, looked up)
chain: LEVPNGPWRSLTFYPAWLTVSEGANATFTCSLSNWSEDLMLNWNRLSPSNQTEKQAAFCNGLSQPVQDARFQIIQLPNRHDFHMNILDTRRNDSGIYLCGAISLHPKAKIEESPGAELVVTERILETSTRYPSPSPKPEGRFQ
notes: also called biotin-labeled PD-1 protein
Regarding B1, in data set [3], the binding result was “binds”.
